Reference: US9315505B2, “Heterocyclic compounds and uses thereof” (INTELLIKINE LLC, priority 2009, dated 2016)

Assays:
Type in all cases: biochemical
PI3K α = target: T1, PI3K α (Homo sapiens, UniProt P42336); test: In vitro IC50, PI3K α (p110α/p85α inhibition assay); details: in vitro kinase assay; read-out: IC50(nM) PI3K α
T1 construct: purchased Upstate
Description: (§1) IC50 values are measured using either a standard TLC assay for lipid kinase activity (described below) or a high-throughput membrane capture assay. Kinase reactions are performed by preparing a reaction mixture containing kinase, inhibitor (2% DMSO final concentration), buffer (25 mM HEPES, pH 7.4, 10 mM MgCl2), and freshly sonicated phosphatidylinositol (100 μg/ml). Reactions are initiated by the addition of ATP containing 10 μCi of γ-32P-ATP to a final concentration 10 or 100 μM and allowed to proceed for 5 minutes at room temperature. For TLC analysis, reactions are then terminated by the addition of 105 μl 1N HCl followed by 160 μl CHCl3:MeOH (1:1). The biphasic mixture is vortexed, briefly centrifuged, and the organic phase is transferred to a new tube using a gel loading pipette tip precoated with CHCl3. This extract is spotted on TLC plates and developed for 3-4 hours in a 65:35 solution of n-propanol:1M acetic acid. The TLC plates are then dried, exposed to a phosphorimager screen (Storm, Amersham), and quantitated.
(§2) Other commercial kits or systems for assaying PI3-K activities are available. The commercially available kits or systems can be used to screen for inhibitors and/or agonists of PI3-Ks including but not limited to PI 3-Kinase α, β, δ, and γ. An exemplary system is PI 3-Kinase (human) HTRF™ Assay from Upstate. […] Briefly, the assay is a time resolved FRET assay that indirectly measures PIP3 product formed by the activity of a PI3-K. The kinase reaction is performed in a microtitre plate (e.g., a 384 well microtitre plate). The total reaction volume is approximately 20 ul per well. In the first step, each well receives 2 ul of test compound in 20% dimethylsulphoxide resulting in a 2% DMSO final concentration. Next, approximately 14.5 ul of a kinase/PIP2 mixture (diluted in 1× reaction buffer) is added per well for a final concentration of 0.25-0.3 ug/ml kinase and 10 uM PIP2. The plate is sealed and incubated for 15 minutes at room temperature. To start the reaction, 3.5 ul of ATP (diluted in 1× reaction buffer) is added per well for a final concentration of 10 uM ATP. The plate is sealed and incubated for 1 hour at room temperature. The reaction is stopped by adding 5 ul of Stop Solution per well and then 5 ul of Detection Mix is added per well. The plate is sealed, incubated for 1 hour at room temperature, and then read on an appropriate plate reader. Data is analyzed and IC50s are generated using GraphPad Prism 5.

PI3K γ = target: T2, PI3K γ (Homo sapiens, UniProt P48736); test: In vitro IC50, PI3K γ (p110γ inhibition assay); details: in vitro kinase assay
T2 construct: purchased Sigma
T2 sequence (P48736 whole entry): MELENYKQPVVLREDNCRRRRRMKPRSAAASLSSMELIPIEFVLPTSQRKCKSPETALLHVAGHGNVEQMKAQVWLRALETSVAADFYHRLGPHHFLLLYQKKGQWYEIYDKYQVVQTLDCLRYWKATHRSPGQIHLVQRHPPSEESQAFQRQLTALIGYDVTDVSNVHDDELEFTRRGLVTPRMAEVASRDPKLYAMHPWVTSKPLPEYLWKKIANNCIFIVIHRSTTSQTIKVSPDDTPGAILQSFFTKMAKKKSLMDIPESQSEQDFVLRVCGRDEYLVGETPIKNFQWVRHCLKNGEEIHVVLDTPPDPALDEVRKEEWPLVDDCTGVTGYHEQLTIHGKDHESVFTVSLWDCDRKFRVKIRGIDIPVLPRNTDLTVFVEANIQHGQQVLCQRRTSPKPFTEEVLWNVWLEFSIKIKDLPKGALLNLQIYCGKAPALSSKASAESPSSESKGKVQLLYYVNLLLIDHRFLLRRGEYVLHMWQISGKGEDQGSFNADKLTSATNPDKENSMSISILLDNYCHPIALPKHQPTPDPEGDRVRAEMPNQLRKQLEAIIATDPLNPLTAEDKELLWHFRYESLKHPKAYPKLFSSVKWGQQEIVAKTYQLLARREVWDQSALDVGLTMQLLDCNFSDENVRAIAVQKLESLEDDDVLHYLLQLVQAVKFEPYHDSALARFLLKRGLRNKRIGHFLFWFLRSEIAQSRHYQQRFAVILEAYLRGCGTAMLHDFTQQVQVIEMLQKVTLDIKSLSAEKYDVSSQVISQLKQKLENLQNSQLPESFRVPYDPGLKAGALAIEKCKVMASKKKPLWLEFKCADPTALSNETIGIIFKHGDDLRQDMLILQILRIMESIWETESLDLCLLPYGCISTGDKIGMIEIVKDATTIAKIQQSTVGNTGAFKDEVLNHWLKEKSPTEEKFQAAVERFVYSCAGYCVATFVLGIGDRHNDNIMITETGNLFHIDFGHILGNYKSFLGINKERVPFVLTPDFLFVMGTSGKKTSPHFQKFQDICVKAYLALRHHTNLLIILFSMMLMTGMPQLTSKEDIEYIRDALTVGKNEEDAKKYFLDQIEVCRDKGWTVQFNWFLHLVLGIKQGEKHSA
Description: as §1, with “Class I PI3-Ks can be either purchased (p110α/p85α, p110β/p85α, p110δ/p85α from Upstate, and p110γ from Sigma) or expressed as previously described (Knight et al., 2004). IC50” for “IC50”, “quantitated. For each compound, kinase activity is measured at 10-12 inhibitor concentrations representing two-fold dilutions from the highest concentration tested (typically, 200 μM).” for “quantitated.”
as §2

PI3K δ = target: T3, PI3K δ (Homo sapiens, UniProt O00329); test: In vitro IC50, PI3K δ (p110δ/p85α inhibition assay); details: in vitro kinase assay; read-out: IC50(nM) PI3K δ
T3 construct: purchased Upstate
T3 sequence (O00329 whole entry): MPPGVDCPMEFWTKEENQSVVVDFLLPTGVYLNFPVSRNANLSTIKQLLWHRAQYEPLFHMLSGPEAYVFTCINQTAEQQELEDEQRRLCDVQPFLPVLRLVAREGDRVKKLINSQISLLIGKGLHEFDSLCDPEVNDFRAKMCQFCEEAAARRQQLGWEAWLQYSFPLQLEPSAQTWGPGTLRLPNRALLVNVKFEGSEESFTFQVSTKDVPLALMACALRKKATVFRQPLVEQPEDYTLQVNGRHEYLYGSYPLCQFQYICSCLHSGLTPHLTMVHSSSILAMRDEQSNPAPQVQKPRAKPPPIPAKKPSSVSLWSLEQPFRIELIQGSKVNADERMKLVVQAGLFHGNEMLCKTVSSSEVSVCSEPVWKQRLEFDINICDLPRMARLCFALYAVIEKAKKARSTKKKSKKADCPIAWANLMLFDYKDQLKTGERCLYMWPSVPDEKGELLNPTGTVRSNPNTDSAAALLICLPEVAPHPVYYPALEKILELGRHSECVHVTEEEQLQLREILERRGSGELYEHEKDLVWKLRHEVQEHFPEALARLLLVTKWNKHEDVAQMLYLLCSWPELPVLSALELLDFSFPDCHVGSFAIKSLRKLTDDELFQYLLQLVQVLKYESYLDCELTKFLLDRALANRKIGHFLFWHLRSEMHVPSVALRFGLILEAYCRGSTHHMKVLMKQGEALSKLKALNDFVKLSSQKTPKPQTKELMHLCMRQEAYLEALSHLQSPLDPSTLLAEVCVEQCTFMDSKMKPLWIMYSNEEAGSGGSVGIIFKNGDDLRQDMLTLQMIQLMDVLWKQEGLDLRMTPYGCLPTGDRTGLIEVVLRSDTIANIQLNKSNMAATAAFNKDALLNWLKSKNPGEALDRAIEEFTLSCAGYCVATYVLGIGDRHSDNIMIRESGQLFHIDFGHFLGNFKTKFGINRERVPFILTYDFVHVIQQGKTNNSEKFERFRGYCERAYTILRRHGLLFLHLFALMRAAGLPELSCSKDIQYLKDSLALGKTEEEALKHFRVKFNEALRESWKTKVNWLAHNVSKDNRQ
T3 sequence (P27986 whole entry partner): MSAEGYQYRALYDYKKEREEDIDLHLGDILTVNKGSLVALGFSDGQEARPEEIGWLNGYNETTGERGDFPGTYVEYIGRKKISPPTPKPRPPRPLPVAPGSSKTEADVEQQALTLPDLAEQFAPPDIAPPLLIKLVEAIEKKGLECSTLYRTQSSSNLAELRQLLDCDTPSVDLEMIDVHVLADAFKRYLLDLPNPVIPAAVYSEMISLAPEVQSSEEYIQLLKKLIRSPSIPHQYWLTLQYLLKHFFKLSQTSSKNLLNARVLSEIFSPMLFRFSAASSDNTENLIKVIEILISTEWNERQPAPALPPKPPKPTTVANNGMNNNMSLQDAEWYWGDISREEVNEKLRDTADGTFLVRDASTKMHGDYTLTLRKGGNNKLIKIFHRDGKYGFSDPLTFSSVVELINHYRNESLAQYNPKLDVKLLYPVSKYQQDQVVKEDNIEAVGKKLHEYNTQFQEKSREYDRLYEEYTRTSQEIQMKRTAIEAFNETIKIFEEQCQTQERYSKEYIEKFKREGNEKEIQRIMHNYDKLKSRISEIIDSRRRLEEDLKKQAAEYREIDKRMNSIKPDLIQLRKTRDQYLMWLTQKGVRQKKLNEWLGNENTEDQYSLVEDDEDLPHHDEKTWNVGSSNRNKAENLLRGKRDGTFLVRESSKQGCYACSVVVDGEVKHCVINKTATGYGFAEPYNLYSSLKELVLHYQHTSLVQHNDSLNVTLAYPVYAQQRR
Description: as §1, §2

T1 sequence (P42336 whole entry): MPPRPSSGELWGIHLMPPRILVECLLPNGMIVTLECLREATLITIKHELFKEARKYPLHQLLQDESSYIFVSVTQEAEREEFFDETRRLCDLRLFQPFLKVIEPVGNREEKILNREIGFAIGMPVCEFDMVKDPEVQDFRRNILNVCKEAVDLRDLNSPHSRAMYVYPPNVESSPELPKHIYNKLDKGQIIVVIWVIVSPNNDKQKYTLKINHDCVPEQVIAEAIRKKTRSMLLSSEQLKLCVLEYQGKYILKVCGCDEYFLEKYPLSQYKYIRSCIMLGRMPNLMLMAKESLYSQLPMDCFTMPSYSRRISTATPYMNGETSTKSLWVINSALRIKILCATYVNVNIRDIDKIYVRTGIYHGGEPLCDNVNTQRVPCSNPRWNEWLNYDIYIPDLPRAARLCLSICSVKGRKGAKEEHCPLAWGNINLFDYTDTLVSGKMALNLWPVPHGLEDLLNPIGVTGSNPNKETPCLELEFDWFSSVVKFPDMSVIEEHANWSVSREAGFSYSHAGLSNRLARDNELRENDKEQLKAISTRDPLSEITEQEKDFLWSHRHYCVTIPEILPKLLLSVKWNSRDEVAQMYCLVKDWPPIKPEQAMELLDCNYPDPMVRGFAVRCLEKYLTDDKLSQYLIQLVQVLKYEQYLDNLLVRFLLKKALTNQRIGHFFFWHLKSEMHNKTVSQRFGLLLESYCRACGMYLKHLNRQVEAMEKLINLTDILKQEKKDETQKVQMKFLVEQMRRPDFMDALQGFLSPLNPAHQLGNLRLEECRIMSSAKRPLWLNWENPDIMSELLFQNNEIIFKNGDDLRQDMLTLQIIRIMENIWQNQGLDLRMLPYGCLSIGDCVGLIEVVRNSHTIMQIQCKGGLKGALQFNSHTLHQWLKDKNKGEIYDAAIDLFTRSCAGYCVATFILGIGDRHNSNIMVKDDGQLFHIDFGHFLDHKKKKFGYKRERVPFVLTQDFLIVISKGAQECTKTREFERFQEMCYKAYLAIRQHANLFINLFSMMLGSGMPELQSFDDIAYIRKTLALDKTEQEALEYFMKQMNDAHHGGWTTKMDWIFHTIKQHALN
T1 sequence (P27986 whole entry partner): as the sequence (P27986 whole entry partner) above

| SMILES | IC50 (PI3K α) [nM] | IC50 (PI3K γ) [nM] | IC50 (PI3K δ) [nM] |
| --- | --- | --- | --- |
| Cc1cccc2cc(CNc3ncnc4[nH]cnc34)nc(OC3CCN(C(C)C)CC3)c12 [Compound 10] | > 10000 | > 10000 | < 100 |
| CCN(Cc1cc2cccc(C)c2c(OC2CCN(C(C)C)CC2)n1)c1ncnc2[nH]cnc12 [Compound 11] | > 10000 | > 10000 | < 10000 |
| Cc1cccc2cc(CN(C)c3ncnc4[nH]cnc34)nc(OC3CCN(C(C)C)CC3)c12 [Compound 12] | > 10000 | > 10000 | < 1000 |
| Cc1cccc2cc(C(C)Nc3ncnc4[nH]cnc34)nc(OC3CCNCC3)c12 (stereo not drawn) [Compound 14] | > 10000 | > 10000 | < 1000 |
| Cc1cccc2cc(Cn3nc(-c4cn[nH]c4)c4c(N)ncnc43)nc(N3CCN(C)CC3)c12 [Compound 18] | < 10000 |  | < 100 |
| Cc1cccc2cc(C(C)Nc3ncnc4[nH]cnc34)nc(N3CCN(C)CC3)c12 (stereo not drawn) [Compound 19] |  | > 10000 | < 100 |
| Cc1cccc2cc(C(C)Nc3ncnc4[nH]cnc34)nc(OC3CCN(C(C)C)CC3)c12 (stereo not drawn) [Compound 21] | < 10000 | > 10000 | < 100 |
| CC(Nc1ncnc2[nH]cnc12)c1cc2ccccc2c(OC2CCNCC2)n1 (stereo not drawn) [Compound 22] |  |  | < 10000 |
| CC(Nc1ncnc2[nH]cnc12)c1cc2ccccc2c(OC2CCN(C)CC2)n1 (stereo not drawn) [Compound 23] | > 10000 | > 10000 | < 1000 |
| Cc1cccc2cc(C(C)Nc3ncnc4[nH]cnc34)nc(Oc3ccccc3)c12 (stereo not drawn) [Compound 24] |  |  | < 1000 |
| Cc1cccc2cc(Cn3nc(-c4cn[nH]c4)c4c(N)ncnc43)nc(N3CCCC3)c12 [Compound 27] | < 10000 | < 1000 | < 100 |
| CC(=O)Nc1nc2ccc(-c3nn(Cc4cc5cccc(C)c5c(OC(C)C)n4)c4ncnc(N)c34)cc2s1 [Compound 28] |  |  | > 10000 |
| Cc1cccc2cc(Cn3nc(-c4ccc5oc(N)nc5c4)c4c(N)ncnc43)nc(OC(C)C)c12 [Compound 29] |  |  | > 10000 |
| Cc1cccc2cc(Cn3nc(-c4cn[nH]c4)c4c(N)ncnc43)nc(OC(C)C)c12 [Compound 30] |  |  | < 10000 |
| Cc1cccc2cc(C(C)Nc3ncnc4[nH]cnc34)nc(OC(C)C)c12 (stereo not drawn) [Compound 32] |  |  | < 10000 |
| Cc1cccc2cc(C(Nc3ncnc4[nH]cnc34)c3ccccc3)ncc12 (stereo not drawn) [Compound 33] |  |  | < 10000 |
| Cc1cccc2cc(Cn3nc(-c4ccc5oc(N)nc5c4)c4c(N)ncnc43)nc(Oc3ccccc3)c12 [Compound 34] |  |  | < 10000 |
| Cc1cccc2cc(C(C)Nc3ncnc4[nH]cnc34)nc(OC3CCOCC3)c12 (stereo not drawn) [Compound 40] |  | > 10000 | < 1000 |
| Cc1cccc2cc(C(C)Nc3ncnc4[nH]cnc34)nc(NC3CCN(C)CC3)c12 (stereo not drawn) [Compound 41] |  | > 10000 | < 1000 |
| Cc1cccc2cc(C(C)Nc3ncnc4[nH]cnc34)nc(NC3CCOCC3)c12 (stereo not drawn) [Compound 43] |  | > 10000 | < 10000 |
| CC(=O)N1CCC(Oc2nc(C(C)Nc3ncnc4[nH]cnc34)cc3cccc(C)c23)CC1 (stereo not drawn) [Compound 47] | > 10000 | < 1000 | < 100 |
| Cc1cccc2cc(C(C)Nc3ncnc4[nH]cnc34)nc(OC3CCN(S(C)(=O)=O)CC3)c12 (stereo not drawn) [Compound 48] | > 10000 | < 10000 | < 100 |

| SMILES | IC50 (PI3K α) [nM] | IC50 (PI3K γ) [nM] | IC50 (PI3K δ) [nM] |
| --- | --- | --- | --- |
| CC(=O)N1CCC(Nc2nc(C(C)Nc3ncnc4[nH]cnc34)cc3cccc(C)c23)CC1 (stereo not drawn) [Compound 49] | > 10000 | < 10000 | < 1000 |
| Cc1cccc2cc(C(C)Nc3ncnc4[nH]cnc34)nc(OCC3CCN(C(C)C)CC3)c12 (stereo not drawn) [Compound 51] | < 10000 | > 10000 | < 100 |
| CC(=O)N1CCC(Oc2nc(C(C)Nc3ncnc4[nH]cnc34)cc3ccccc23)CC1 (stereo not drawn) [Compound 52] | > 10000 | > 10000 | < 1000 |
| CC(Nc1ncnc2[nH]cnc12)c1cc2ccccc2c(OC2CCN(S(C)(=O)=O)CC2)n1 (stereo not drawn) [Compound 53] | > 10000 | > 10000 | < 1000 |
| C[C@H](Nc1ncnc2[nH]cnc12)c1cc2cccc(Cl)c2c(N2CCN(S(C)(=O)=O)CC2)n1 [Compound 64] | < 10000 | < 1000 | < 100 |
| CC(=O)N1CCN(c2nc([C@H](C)Nc3ncnc4[nH]cnc34)cc3cccc(Cl)c23)CC1 [Compound 69] | > 10000 | > 10000 | < 1000 |
| CC(=O)N1CCN(c2nc(Cn3nc(-c4cn[nH]c4)c4c(N)ncnc43)cc3cccc(Cl)c23)CC1 [Compound 70] | > 10000 | < 10000 | < 100 |
| C[C@H](Nc1ncnc2[nH]cnc12)c1cc2cccc(Cl)c2c(N(C)C)n1 [Compound 71] | < 10000 | < 1000 | < 100 |
| C[C@H](Nc1ncnc2[nH]cnc12)c1cc2cccc(Cl)c2c(OCCN2CCCC2)n1 [Compound 72] | < 10000 | < 1000 | < 100 |
| C[C@H](Nc1ncnc2[nH]cnc12)c1cc2cccc(Cl)c2c(OCC2CCN(C)CC2)n1 [Compound 73] | < 10000 | < 10000 | < 100 |
| C[C@H](Nc1ncnc2[nH]cnc12)c1cc2cccc(Cl)c2c(OCCN2CCN(S(C)(=O)=O)CC2)n1 [Compound 74] | > 10000 | < 10000 | < 100 |
| C[C@H](Nc1ncnc2[nH]cnc12)c1cc2cccc(Cl)c2c(OCC2CCN(S(C)(=O)=O)CC2)n1 [Compound 75] | > 10000 | > 10000 | < 100 |
| C[C@H](Nc1ncnc2[nH]cnc12)c1cc2ccccc2c(-c2cccnc2)n1 [Compound 76] | > 10000 | < 10000 | < 1000 |
| C[C@H](Nc1ncnc2[nH]cnc12)c1cc2ccccc2c(N2CCN(S(C)(=O)=O)CC2)n1 [Compound 77] | > 10000 | > 10000 | < 1000 |
| CC(Nc1ncnc2[nH]cnc12)c1cc2cccc(Cl)c2c(CCN2CCOCC2)n1 (stereo not drawn) [Compound 78] | > 10000 | < 10000 | < 100 |
| CC(Nc1ncnc2[nH]cnc12)c1cc2cccc(Cl)c2c(CCN2CCCC2)n1 (stereo not drawn) [Compound 79] | > 10000 | < 10000 | < 100 |
| CC(Nc1ncnc2[nH]cnc12)c1cc2cccc(Cl)c2c(CCN2CCN(S(C)(=O)=O)CC2)n1 (stereo not drawn) [Compound 80] | > 10000 | < 10000 | < 100 |
| CC(=O)N1CCN(CCc2nc(C(C)Nc3ncnc4[nH]cnc34)cc3cccc(Cl)c23)CC1 (stereo not drawn) [Compound 81] | > 10000 | > 10000 | < 1000 |
| C[C@H](Nc1ncnc2[nH]cnc12)c1cc2cccc(Cl)c2c(-c2cccnc2)n1 [Compound 82] | > 10000 | < 1000 | < 100 |
| C[C@@H](Nc1ncnc2[nH]cnc12)c1cc2cccc(Cl)c2c(N2CCN(S(C)(=O)=O)CC2)n1 [Compound 83] | > 10000 | > 10000 | > 10000 |
| C[C@@H](Nc1ncnc2[nH]cnc12)c1cc2cccc(Cl)c2c(OC2CCN(S(C)(=O)=O)CC2)n1 [Compound 84] | > 10000 | > 10000 | < 1000 |
